Assay results reported in ChEMBL document CHEMBL5126512, “Current status of carbazole hybrids as anticancer agents” (Eur J Med Chem, 2022).

What was measured:
[1] = biological target: Urokinase-type plasminogen activator (Homo sapiens, UniProt P00749); assay: Inhibition of urokinase plasminogen activator in human MCF7 cells measured after 24 hrs by ELISA method; assay type: cell-based
MCF7 [2] = assay: Anticancer activity against human MCF7 cells assessed as cell growth inhibition measured after 24 hrs by MTT assay; assay type: functional, cell-based; settings: MCF7, 24 h
[3] = Cytotoxicity against human HFB4 cells assessed as cell growth inhibition measured after 24 hrs by MTT assay; assay type: toxicity, cell-based
MCF7 [4] = assay: Antiproliferative activity against human MCF7 cells assessed as cell growth inhibition measured after 48 hrs by SRB assay; assay type: functional, cell-based
MDA-MB-231 [5] = assay: Antiproliferative activity against human MDA-MB-231 cells assessed as cell growth inhibition measured after 48 hrs by SRB assay; assay type: functional, cell-based
HCT-116 [6] = assay: Antiproliferative activity against human HCT-116 cells assessed as cell growth inhibition measured after 72 hrs by MTT assay; assay type: functional, cell-based; settings: HCT-116, 72 h
MDA-MB-231 [7] = assay: Antiproliferative activity against human MDA-MB-231 cells assessed as cell growth inhibition measured after 72 hrs by MTT assay; assay type: functional, cell-based; settings: MDA-MB-231, 72 h
A549 [8] = assay: Antiproliferative activity against human A549 cells assessed as cell growth inhibition measured after 72 hrs by MTT assay; assay type: functional, cell-based; settings: A549, 72 h
ASPC1 = assay: Anticancer activity against human ASPC1 cells assessed as cell growth inhibition measured after 72 hrs by Cell-Titre Glo luminescent cell viability assay; assay type: functional, cell-based; settings: ASPC1, 72 h
SW1990 = assay: Anticancer activity against human SW1990 cells assessed as cell growth inhibition measured after 72 hrs by Cell-Titre Glo luminescent cell viability assay; assay type: functional, cell-based; settings: SW1990, 72 h
HEp-2 = assay: Cytotoxicity against human HEp-2 cells assessed as cell growth inhibition by MTT assay; assay type: functional, cell-based
HeLa [9] = assay: Cytotoxicity against human HeLa cells assessed as cell growth inhibition by MTT assay; assay type: functional, cell-based
MCF7 [10] = assay: Cytotoxicity against human MCF7 cells assessed as cell growth inhibition by MTT assay; assay type: functional, cell-based
A549 [11] = assay: Cytotoxicity against human A549 cells assessed as cell growth inhibition measured after 24 hrs by MTT assay; assay type: functional, cell-based; settings: A549, 24 h, pooled result: one value given for 4 cell lines, strains, targets or settings
[12] = Cytotoxicity against human RPE-1 cells assessed as cell growth inhibition measured after 48 hrs by MTT assay; assay type: toxicity, cell-based; settings: RPE-1 (TERT-RPE1) cells
MCF7 [13] = assay: Cytotoxicity against human MCF7 cells assessed as cell growth inhibition measured after 48 hrs by MTT assay; assay type: functional, cell-based; settings: MCF7, 48 h
HCT-116 [14] = assay: Cytotoxicity against human HCT-116 cells assessed as cell growth inhibition measured after 48 hrs by MTT assay; assay type: functional, cell-based; settings: HCT-116, 48 h
HepG2 [15] = assay: Cytotoxicity against human HepG2 cells assessed as cell growth inhibition measured after 48 hrs by MTT assay; assay type: functional, cell-based; settings: HepG2, 48 h
MDA-MB-231 [16] = assay: Cytotoxicity against human MDA-MB-231 cells assessed as cell growth inhibition measured after 72 hrs by MTT assay; assay type: functional, cell-based; settings: MDA-MB-231, 72 h
HeLa [17] = assay: Cytotoxicity against human HeLa cells assessed as cell growth inhibition measured after 72 hrs by MTT assay; assay type: functional, cell-based; settings: pooled result: one value given for 3 cell lines, strains, targets or settings
HepG2 [18] = assay: Cytotoxicity against human HepG2 cells assessed as cell growth inhibition measured after 72 hrs by MTT assay; assay type: functional, cell-based; settings: HepG2, 72 h
MCF7 [19] = assay: Cytotoxicity against human MCF7 cells assessed as cell growth inhibition measured after 72 hrs by MTT assay; assay type: functional, cell-based; settings: MCF7, 72 h
COLO 205 = assay: Antiproliferative activity against human COLO 205 cells assessed as cell growth inhibition by MTT assay; assay type: functional, cell-based
MCF7 [20] = assay: Antiproliferative activity against human MCF7 cells assessed as cell growth inhibition by MTT assay; assay type: functional, cell-based
A549 [21] = assay: Antiproliferative activity against human A549 cells assessed as cell growth inhibition by MTT assay; assay type: functional, cell-based
[22] = Cytotoxicity against green monkey MARC145 cells assessed as cell growth inhibition measured after 72 hrs by MTT assay; assay type: toxicity, cell-based, Chlorocebus aethiops
[23] = Cytotoxicity against human A875 cells assessed as cell growth inhibition measured after 72 hrs by MTT assay; assay type: functional, cell-based; settings: A875, 72 h
OVCAR-3 = assay: Antiproliferative activity against human OVCAR-3 cells assessed as cell growth inhibition measured after 48 hrs by SRB assay; assay type: functional, cell-based; settings: OVCAR-3, 48 h
Hs-578T = assay: Antiproliferative activity against human Hs-578T cells assessed as cell growth inhibition measured after 48 hrs by SRB assay; assay type: functional, cell-based
OVCAR-4 = assay: Antiproliferative activity against human OVCAR-4 cells assessed as cell growth inhibition measured after 48 hrs by SRB assay; assay type: functional, cell-based; settings: OVCAR-4, 48 h
HOP-62 = assay: Antiproliferative activity against human HOP-62 cells assessed as cell growth inhibition measured after 48 hrs by SRB assay; assay type: functional, cell-based; settings: HOP-62, 48 h
786-0 = assay: Antiproliferative activity against human 786-0 cells assessed as cell growth inhibition measured after 48 hrs by SRB assay; assay type: functional, cell-based; settings: 786-0, 48 h
UO-31 = assay: Antiproliferative activity against human UO-31 cells assessed as cell growth inhibition measured after 48 hrs by SRB assay; assay type: functional, cell-based; settings: UO-31, 48 h
SNB-75 = assay: Antiproliferative activity against human SNB-75 cells assessed as cell growth inhibition measured after 48 hrs by SRB assay; assay type: functional, cell-based; settings: SNB-75, 48 h
SW-620 = assay: Antiproliferative activity against human SW-620 cells assessed as cell growth inhibition measured after 48 hrs by SRB assay; assay type: functional, cell-based; settings: SW-620, 48 h
HepG2 [24] = assay: Antiproliferative activity against human HepG2 cells assessed as cell growth inhibition by MTT assay; assay type: functional, cell-based
[25] = Antiproliferative activity against human Lu1 cells assessed as cell growth inhibition by MTT assay; assay type: functional, cell-based
[26] = Antiproliferative activity against mouse […] cells assessed as cell growth inhibition by MTT assay; assay type: functional, cell-based
SW480 = assay: Antiproliferative activity against human SW480 cells assessed as cell growth inhibition by MTT assay; assay type: functional, cell-based
A549 [27] = assay: Antiproliferative activity against human A549 cells assessed as cell growth inhibition measured after 72 hrs by SRB assay; assay type: functional, cell-based; settings: A549, 72 h
A498 = assay: Antiproliferative activity against human A498 cells assessed as cell growth inhibition measured after 72 hrs by SRB assay; assay type: functional, cell-based; settings: A498, 72 h
MDA-MB-231 [28] = assay: Antiproliferative activity against human MDA-MB-231 cells assessed as cell growth inhibition by MTT assay; assay type: functional, cell-based
HCT-116 [29] = assay: Antiproliferative activity against human HCT-116 cells assessed as cell growth inhibition by MTT assay; assay type: functional, cell-based
K562 = assay: Antiproliferative activity against human K562 cells assessed as cell growth inhibition by MTT assay; assay type: functional, cell-based
SK-OV-3 = assay: Antiproliferative activity against human SK-OV-3 cells assessed as cell growth inhibition by MTT assay; assay type: functional, cell-based

## c1cncc(C2c3[nH]c4ccccc4c3C(c3cccnc3)c3[nH]c4ccccc4c32)c1 (configuration not stated)
[1]
  IC50: 2700 nM
MCF7 [2]
  IC50: 4000 nM
[3]
  IC50 at 24 h: 80000 nM

## COc1ccc(C(NNC(=O)Cn2c3ccccc3c3ccccc32)N2CCNCC2)cc1 (configuration not stated)
MCF7 [4]; MCF7, time 48 hrs
  GI50: < 10000 nM
MDA-MB-231 [5]; MDA-MB-231, time 48 hrs
  GI50: < 10000 nM

## CC1CCN(CC(O)Cn2c3ccc(Cl)cc3c3cc(Cl)ccc32)CC1 (configuration not stated)
HCT-116 [6]
  IC50: 7100 nM
MDA-MB-231 [7]
  IC50: 7100 nM
A549 [8]
  IC50: 7100 nM

## CCCCCCn1c2ccccc2c2cc(/C=N/NC(=O)c3ccncc3)ccc21
ASPC1
  IC50: 3420 nM
SW1990
  IC50: 3420 nM

## O=C1c2ccsc2N=C2c3[nH]c4ccc(Br)cc4c3CCC12 (configuration not stated)
HEp-2
  IC50: 5750 nM
HeLa [9]
  IC50: 5750 nM
MCF7 [10]
  IC50: 5750 nM

## COc1cc([C@@H]2c3cc4c(cc3[C@@H](O[C@@H]3O[C@@H]5CO[C@@H](C)O[C@H]5[C@H](O)[C@H]3O)[C@H]3COC(=O)[C@H]23)OCO4)cc(OC)c1O [ETOPOSIDE]
A549 [11]
  IC50: 1970 nM

## CCn1c2ccccc2c2cc(NC(=O)c3cc4cccc(OC)c4oc3=O)ccc21
[12]
  IC50 at 48 h: > 100000 nM
MCF7 [13]
  IC50: 900 nM
HCT-116 [14]
  IC50: 900 nM
HepG2 [15]
  IC50: 900 nM

## COc1cc(NC(=O)Nc2cc(C)c3[nH]c4ccc(Br)cc4c3c2C)cc(OC)c1OC
MDA-MB-231 [16]
  IC50: 1930 nM
HeLa [17]
  IC50: 1930 nM
HepG2 [18]
  IC50: 1930 nM
MCF7 [19]
  IC50: 1930 nM

## COc1ccc2[nH]c3c(C)cc(-c4cc(-c5ccc(F)cc5)nc(N)n4)c(C)c3c2c1
COLO 205
  IC50: 100 nM
MCF7 [20]
  IC50: 100 nM
A549 [21]
  IC50: 100 nM

## O=c1[nH]cc(F)c(=O)[nH]1 [FLUOROURACIL]
[22]
  IC50 at 72 h: 72300 nM
HepG2 [18]
  IC50: 72300 nM
[23]
  IC50: 72300 nM

## Cc1c2ccncc2c(/C=C/C(C)NC=O)c2c1[nH]c1ccccc12 (configuration not stated)
OVCAR-3
  IC50: 1250 nM
MCF7 [4]; MCF7, 48 h
  IC50: 1250 nM
Hs-578T
  IC50: 1250 nM
OVCAR-4
  IC50: 1250 nM
HOP-62
  IC50: 1250 nM
786-0
  IC50: 1250 nM
UO-31
  IC50: 1250 nM
SNB-75
  IC50: 1250 nM
SW-620
  IC50: 1250 nM
MDA-MB-231 [5]; MDA-MB-231, 48 h
  IC50: 1250 nM

## COc1ccc2[nH]c3c(C)cc(-c4cc(-c5ccc(C(F)(F)F)cc5)nc(N)n4)c(C)c3c2c1
COLO 205
  IC50: 100 nM
MCF7 [20]
  IC50: 100 nM
A549 [21]
  IC50: 100 nM

## CCN1CCN(CC(O)Cn2c3ccccc3c3cc(C)c(OC)cc32)CC1 (configuration not stated)
HepG2 [24]
  IC50: 3990 nM
[25]
  IC50: 3990 nM
[26]
  IC50: 3990 nM
SW480
  IC50: 3990 nM

## CCn1c2ccccc2c2cc(NC(=O)c3c(N)n[nH]c3Nc3ccccc3)ccc21
[12]
  IC50 at 48 h: > 100000 nM
MCF7 [13]
  IC50: 2970 nM
HCT-116 [14]
  IC50: 2970 nM
HepG2 [15]
  IC50: 2970 nM

## Cc1c2ccncc2c(C)c2c1[nH]c1ccccc12 [ELLIPTECINE]
HEp-2
  IC50: 9850 nM
A549 [27]
  IC50: 850 nM
MDA-MB-231 [16]
  IC50: 1050 nM
A498
  IC50: 1740 nM
HeLa [9]
  IC50: 9850 nM
HeLa [17]
  IC50: 1050 nM
MCF7 [10]
  IC50: 9850 nM
HepG2 [18]
  IC50: 1050 nM
MCF7 [19]
  IC50: 1050 nM

## O=Cc1c[nH]c2c1ccc1c3ccccc3n(CCCC(=O)NCCn3ccn4c5ccccc5cc34)c12
MDA-MB-231 [28]
  IC50: 9000 nM
HCT-116 [29]
  IC50: 9000 nM
K562
  IC50: 9000 nM
MCF7 [20]
  IC50: 9000 nM
SK-OV-3
  IC50: 9000 nM

## OC(CN1CCCCC1)Cn1c2ccc(Cl)cc2c2cc(Cl)ccc21 (configuration not stated)
HCT-116 [6]
  IC50: 7100 nM
MDA-MB-231 [7]
  IC50: 7100 nM
A549 [8]
  IC50: 7100 nM

## CCCCn1c2ccc(Br)cc2c2cc(/C=N/NC(=O)c3ccncc3)ccc21
ASPC1
  IC50: 3420 nM
SW1990
  IC50: 3420 nM

## CCn1c2ccccc2c2cc(NC(=O)c3c(N)n[nH]c3Nc3ccc(Cl)cc3)ccc21
[12]
  IC50 at 48 h: > 100000 nM
MCF7 [13]
  IC50: 2970 nM
HCT-116 [14]
  IC50: 2970 nM
HepG2 [15]
  IC50: 2970 nM
